Test results as given in patent US20240262819A1, “NOVEL COMPOUNDS HAVING INHIBITORY ACTIVITY AGAINST GLUCOSYLCERAMIDE SYNTHASE OR PHARMACEUTICALLY ACCEPTABLE SALT THEREOF, PROCESSES FOR PREPARING THE SAME, AND PHARMACEUTICAL COMPOSITIONS COMPRISING THE SAME” (YUHAN CORPORATION, priority 2021, published 2024).
Like-named read-outs stand apart in the source and are kept apart here.

What was measured:
[1] = target: glucosylceramide synthase (GCS) (Homo sapiens (Human), UniProt Q16739); experiment: Evaluation of inhibitory activities against GCS (A549 cell lysate, NBD C6-ceramide, HPLC); assay type: biochemical
Summary of the method: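 GCS activity in A549 cell lysate (50 mM HEPES, pH 7.3) with NBD C6-ceramide, reacted 90 min at 37 °C. Lipids were chloroform/methanol-extracted and separated by normal-phase HPLC with fluorescence detection (ex 470/em 530 nm). GlcCer fraction of peak area was normalized between DMSO and ibiglustat, and IC50 obtained by curve fitting.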

[2] = system: GM1 production in Jurkat cells; experiment: cells; assay type: cell-based
[3] = Evaluation of blood-brain barrier (BBB) permeability through oral administration; assay type: in vivo, mice; conditions: mouse, in vivo, mice, oral, dose 30 mg/kg, 4 hr; for Kp at 4 h: read-out: Mean brain-plasma drug ratio at 4 hr
Summary of the method: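 Mice dosed orally at 10 or 30 mg/10 ml/kg, suspended in 0.5% methyl cellulose with 0.2% Tween 80. Plasma and forebrain homogenate taken 4 hours post-dose, drug measured by LC-MS/MS; brain/plasma ratio calculated from tissue concentrations.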

[4] = read-out: Mean drug concentrations in brain tissue at 4 hr
[5] = read-out: Mean drug concentrations in plasma at 4 hr
[6] = % GCS activity, A549 cell lysate, 37° C. for 90 minutes, read-out: IC50

Chain of glucosylceramide synthase (GCS) (Q16739 whole entry): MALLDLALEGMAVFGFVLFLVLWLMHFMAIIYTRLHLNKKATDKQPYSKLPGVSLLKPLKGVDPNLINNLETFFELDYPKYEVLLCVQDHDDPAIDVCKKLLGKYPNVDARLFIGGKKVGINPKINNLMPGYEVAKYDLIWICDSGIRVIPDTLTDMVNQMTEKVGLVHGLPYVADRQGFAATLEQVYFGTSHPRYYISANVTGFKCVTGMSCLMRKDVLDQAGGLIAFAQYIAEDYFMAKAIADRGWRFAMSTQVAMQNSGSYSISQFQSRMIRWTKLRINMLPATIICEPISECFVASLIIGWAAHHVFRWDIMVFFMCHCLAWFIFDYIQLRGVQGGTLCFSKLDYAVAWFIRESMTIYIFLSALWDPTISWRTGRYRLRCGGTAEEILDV

Compound | IC50 [1] | IC50 ([2]; Homo sapiens, Jurkat, 72 h) | Kp at 4 h [3] | concentration at 4 h [3, 4] | concentration at 4 h [3, 5] | IC50 [1, 6] | IC50 ([2]; read-out: IC50)
COc1ccc(-c2ccc3c(c2)CC(C)(C)[C@H]3NC(=O)O[C@@H]2CN3CCC2CC3)cc1F [Example 18, (S)-quinuclidin-3-yl((R)-5-(3-fluoro-4-methoxyphenyl)-2,2-dimethyl-2,3-dihydro-1H-inden-1-yl)carbamate] | 3.19 nM | 50.7 nM | 3.47 | 3950 ng/g | 1130 ng/mL |  | 
CC(C)Oc1ccc(-c2ccc3c(c2)CC(C)(C)[C@H]3NC(=O)O[C@@H]2CN3CCC2CC3)c(Cl)c1 [Example 32, (S)-quinuclidin-3-yl((R)-5-(2-chloro-4-isopropoxyphenyl)-2,2-dimethyl-2,3-dihydro-1H-inden-1-yl)carbamate] | 0.192 nM | 4.23 nM | 4.23 | 5650 ng/g | 1340 ng/mL |  | 
Cc1cc(-c2ccc3c(c2)CC(C)(C)[C@H]3NC(=O)O[C@@H]2CN3CCC2CC3)ccc1OC(C)C [Example 34, (S)-quinuclidin-3-yl((R)-5-(4-isopropoxy-3-methylphenyl)-2,2-dimethyl-2,3-dihydro-1H-inden-1-yl)carbamate] | 1.31 nM | 2.3 nM | 14 | 10700 ng/g | 767 ng/mL |  | 
COc1cc(-c2ccc3c(c2)CC(C)(C)[C@H]3NC(=O)O[C@@H]2CN3CCC2CC3)ccc1OC(C)C [Example 35, (S)-quinuclidin-3-yl((R)-5-(4-isopropoxy-3-methoxyphenyl)-2,2-dimethyl-2,3-dihydro-1H-inden-1-yl)carbamate] | 2.22 nM | 3.3 nM | 1.85 | 2010 ng/g | 1080 ng/mL |  | 
Cc1cc(OC(C)C)ccc1-c1ccc2c(c1)CC(C)(C)[C@H]2NC(=O)O[C@@H]1CN2CCC1CC2 [Example 36, (S)-quinuclidin-3-yl((R)-5-(4-isopropoxy-2-methylphenyl)-2,2-dimethyl-2,3-dihydro-1H-inden-1-yl)carbamate] | 0.13 nM | 0.7 nM | 3.65 | 6650 ng/g | 1830 ng/mL |  | 
CC1(C)Cc2cc(-c3ccc(OCC4CC4)cc3Cl)ccc2[C@@H]1NC(=O)O[C@@H]1CN2CCC1CC2 [Example 38, (S)-quinuclidin-3-yl((R)-5-(2-chloro-4-(cyclopropylmethoxy)phenyl)-2,2-dimethyl-2,3-dihydro-1H-inden-1-yl)carbamate] | 0.05 nM | 3.2 nM | 5.6 | 3640 ng/g | 670 ng/mL |  | 
CC1(C)Cc2cc(-c3ccc(OCC4CC4)c(Cl)c3)ccc2[C@@H]1NC(=O)O[C@@H]1CN2CCC1CC2 [Example 39, (S)-quinuclidin-3-yl((R)-5-(3-chloro-4-(cyclopropylmethoxy)phenyl)-2,2-dimethyl-2,3-dihydro-1H-inden-1-yl)carbamate] | 1.03 nM | 1.1 nM | 9.85 | 5510 ng/g | 564 ng/mL |  | 
CCOc1ccc(-c2ccc3c(c2)CC(C)(C)[C@H]3NC(=O)O[C@@H]2CN3CCC2CC3)c(Cl)c1 [Example 44, (S)-quinuclidin-3-yl((R)-5-(2-chloro-4-ethoxyphenyl)-2,2-dimethyl-2,3-dihydro-1H-inden-1-yl)carbamate] | 0.17 nM | 2.3 nM | 4.79 | 8860 ng/g | 1850 ng/mL |  | 
CCCOc1c(C)cc(-c2cc3c(cc2F)[C@H](NC(=O)O[C@@H]2CN4CCC2CC4)C(C)(C)C3)cc1C [Example 64, (S)-quinuclidin-3-yl((R)-5-(3,5-dimethyl-4-propoxyphenyl)-6-fluoro-2,2-dimethyl-2,3-dihydro-1H-inden-1-yl)carbamate] | 3.92 nM | 11.6 nM | 4.43 | 1040 ng/g | 234 ng/mL |  | 
CC(C)Oc1ccc(-c2cc3c(cc2F)[C@H](NC(=O)O[C@@H]2CN4CCC2CC4)C(C)(C)C3)cc1F [Example 83, (S)-quinuclidin-3-yl((R)-6-fluoro-5-(3-fluoro-4-isopropoxyphenyl)-2,2-dimethyl-2,3-dihydro-1H-inden-1-yl)carbamate] | 0.58 nM | 10.4 nM | 6.29 | 7370 ng/g | 1170 ng/mL |  | 
Cc1ccc(-c2cc3c(cc2F)[C@H](NC(=O)O[C@@H]2CN4CCC2CC4)C(C)(C)C3)cc1Cl [Example 84, (S)-quinuclidin-3-yl((R)-5-(3-chloro-4-methylphenyl)-6-fluoro-2,2-dimethyl-2,3-dihydro-1H-inden-1-yl)carbamate] | 0.29 nM | 17.2 nM | 7.23 | 4940 ng/g | 683 ng/mL |  | 
CCOc1ccc(-c2cc3c(cc2F)[C@H](NC(=O)O[C@@H]2CN4CCC2CC4)C(C)(C)C3)cc1Cl [Example 86, (S)-quinuclidin-3-yl((R)-5-(3-chloro-4-ethoxyphenyl)-6-fluoro-2,2-dimethyl-2,3-dihydro-1H-inden-1-yl)carbamate] | 0.756 nM | 45.8 nM | 5.65 | 4790 ng/g | 852 ng/mL |  | 
CCCOc1ccc(-c2cc3c(cc2F)[C@H](NC(=O)O[C@@H]2CN4CCC2CC4)C(C)(C)C3)cc1Cl [Example 87, (S)-quinuclidin-3-yl((R)-5-(3-chloro-4-propoxyphenyl)-6-fluoro-2,2-dimethyl-2,3-dihydro-1H-inden-1-yl)carbamate] | 0.77 nM | 36.2 nM | 8.57 | 972 ng/g | 114 ng/mL |  | 
COc1ccc(-c2cc3c(cc2F)[C@H](NC(=O)O[C@@H]2CN4CCC2CC4)C(C)(C)C3)cc1F [Example 89, (S)-quinuclidin-3-yl((R)-6-fluoro-5-(3-fluoro-4-methoxyphenyl)-2,2-dimethyl-2,3-dihydro-1H-inden-1-yl)carbamate] | 0.621 nM | 43.5 nM | 5.42 | 4040 ng/g | 751 ng/mL |  | 
CC(C)Oc1ccc(-c2cc3c(cc2F)[C@H](NC(=O)O[C@@H]2CN4CCC2CC4)C(C)(C)C3)c(Cl)c1 [Example 92, (S)-quinuclidin-3-yl((R)-5-(2-chloro-4-isopropoxyphenyl)-6-fluoro-2,2-dimethyl-2,3-dihydro-1H-inden-1-yl)carbamate] | 0.07 nM | 1.16 nM | 4.13 | 2230 ng/g | 545 ng/mL |  | 
CC(C)Cc1cccc(-c2cc3c(cc2F)[C@H](NC(=O)O[C@@H]2CN4CCC2CC4)C(C)(C)CC3)c1 [Example 189, (S)-quinuclidin-3-yl((R)-7-fluoro-6-(3-isobutylphenyl)-2,2-dimethyl-1,2,3,4-tetrahydronaphthalen-1-yl)carbamate] | 1.04 nM | 6 nM |  |  |  |  | 
CC(C)c1cccc(-c2cc3c(cc2F)[C@H](NC(=O)O[C@@H]2CN4CCC2CC4)C(C)(C)CC3)c1 [Example 190, (S)-quinuclidin-3-yl((R)-7-fluoro-6-(3-isopropylphenyl)-2,2-dimethyl-1,2,3,4-tetrahydronaphthalen-1-yl)carbamate] | 0.72 nM | 1.9 nM |  |  |  |  | 
CC(C)COc1cccc(-c2cc3c(cc2F)[C@H](NC(=O)O[C@@H]2CN4CCC2CC4)C(C)(C)CC3)c1 [Example 191, (S)-quinuclidin-3-yl((R)-7-fluoro-6-(3-isobutoxyphenyl)-2,2-dimethyl-1,2,3,4-tetrahydronaphthalen-1-yl) carbamate] |  |  |  |  |  | 0.62 nM | 2.28 nM
CCCOc1cccc(-c2cc3c(cc2F)[C@H](NC(=O)O[C@@H]2CN4CCC2CC4)C(C)(C)CC3)c1 [Example 192, (S)-quinuclidin-3-yl((R)-7-fluoro-2,2-dimethyl-6-(3-propoxyphenyl)-1,2,3,4-tetrahydronaphthalen-1-yl) carbamate] |  |  |  |  |  | 0.53 nM | 2.9 nM
CCOc1c(C)cc(-c2cc3c(cc2F)[C@H](NC(=O)O[C@@H]2CN4CCC2CC4)C(C)(C)CC3)cc1C [Example 195, (S)-quinuclidin-3-yl((R)-6-(4-ethoxy-3,5-dimethylphenyl)-7-fluoro-2,2-dimethyl-1,2,3,4-tetrahydronaphthalen-1-yl)carbamate] | 1.29 nM | 8.3 nM |  |  |  |  | 
CC(C)Oc1cccc(-c2cc3c(cc2F)[C@H](NC(=O)O[C@@H]2CN4CCC2CC4)C(C)(C)CC3)c1 [Example 196, (S)-quinuclidin-3-yl((R)-7-fluoro-6-(3-isopropoxyphenyl)-2,2-dimethyl-1,2,3,4-tetrahydronaphthalen-1-yl)carbamate] | 0.43 nM | 6 nM |  |  |  |  | 
(S)-quinuclidin-3-yl((R)-2,2-dimethyl-6-(3-propylphenyl)-1,2,3,4-tetrahydronaphthalen-1-yl) carbamate [Example 156] |  |  |  |  |  | 0.62 nM | 1.9 nM
(S)-quinuclidin-3-yl((R)-7-fluoro-6-(4-isopropylphenyl)-2,2-dimethyl-1,2,3,4-tetrahydronaphthalen-1-yl) carbamate [Example 172] |  |  |  |  |  | 0.33 nM | 0.86 nM
(S)-quinuclidin-3-yl((R)-7-fluoro-6-(4-methoxyphenyl)-2,2-dimethyl-1,2,3,4-tetrahydronaphthalen-1-yl) carbamate [Example 175] |  |  |  |  |  | 0.28 nM | 3.8 nM
